Test results from US20220249413A1, “SWELL 1 MODULATORS FOR TREATMENT OF NON-ALCOHOLIC FATTY LIVER DISEASE, IMMUNE DEFICIENCIES, MALE INFERTILITY AND VASCULAR DISEASES” (priority 2019, published 2022).

What was measured:
[1] = system: insulin-AKT2-AS160 signaling; assay: Insulin-stimulated pAKT2/pAS160 signaling in 3T3-F442A cells (Western blot); type: cell-based
Description: (§1) For Smod1 (DCPIB) mediated induction of SWELL1 and insulin signaling studies in 3T3-F442A preadipocytes, the cells were incubated with either vehicle (DMSO) or 10 μM Smod1 for 96 h. The cells were serum starved for 6 h (+DMSO or Smod1) and stimulated with 0, 3 and 10 nM insulin containing media (−DMSO or Smod1), as described above for 15 mins and the lysates were collected. In the case of 3T3-F442A adipocytes, the WT and KO cells were treated with either vehicle (DMSO) or 10 μM Smod1 following 7-11 days of differentiation for 96 h and then stimulated with 0 and 10 nM insulin for 15 min, as described above. Human embryonic kidney (HEK) cells were cultured and maintained in 90% DMEM (25 mM D-Glucose and 4 mM L-Glutamine) containing 10% fetal bovine serum (FBS) and 100 IU penicillin and 100 μg/ml streptomycin media.
Electrophysiology Patch-clamp recordings of β-cells and mature adipocytes were performed as described previously (Zhang et al., Nat Cell Biol, 19, 504-517, 2017; Kang et al., Nature Communications, 9, 367, 2018). 3T3-F442A WT and KO preadipocytes were prepared as described in the Cell culture section above. For SWELL1 overexpression recordings, preadipocytes were first transduced with Ad5-CAG-LoxP-stop-LoxP-3× Flag-SWELL1 (MOI 12) in 2% FBS culture medium for two days and then overexpression induced by adding Ad5-CMV-Cre-wt-IRES-eGFP (MOI 10-12) in 2% FBS culture medium for two more days and changed to 10% FBS containing culture media and were selected based on GFP expression (˜2-3 days). For 3-cell recordings, islets were transduced with Ad-RIP2-GFP and then dispersed after 48-72 hours for patch-clamp experiments. GFP+ cells marked […] selected for patch-clamp recordings. Recordings were measured using Axopatch 200B amplifier paired to a Digidata 1550 digitizer using pClamp 10.4 software. The extracellular buffer composition for hypotonic stimulation contains 90 mM NaCl, 2 mM CsCl, 1 mM MgCl2, 1 mM CaCl2), 10 mM HEPES, 10 mM Mannitol, pH 7.4 with NaOH (210 mOsm/kg). […] The images were further analyzed for band intensities using ImageJ software. […]

ICl,SWELL = target: T1, ICl,SWELL (Homo sapiens, UniProt Q8IWT6); assay: ICl,SWELL patch-clamp upon hypotonic stimulation; type: cell-based; settings: 10 μM Smod1, HEK cells (FIG. 2f)
T1 construct: endogenous in cells; host or cells: HEK cells (printed 'BEK cells')
T1 sequence (Q8IWT6 1-810): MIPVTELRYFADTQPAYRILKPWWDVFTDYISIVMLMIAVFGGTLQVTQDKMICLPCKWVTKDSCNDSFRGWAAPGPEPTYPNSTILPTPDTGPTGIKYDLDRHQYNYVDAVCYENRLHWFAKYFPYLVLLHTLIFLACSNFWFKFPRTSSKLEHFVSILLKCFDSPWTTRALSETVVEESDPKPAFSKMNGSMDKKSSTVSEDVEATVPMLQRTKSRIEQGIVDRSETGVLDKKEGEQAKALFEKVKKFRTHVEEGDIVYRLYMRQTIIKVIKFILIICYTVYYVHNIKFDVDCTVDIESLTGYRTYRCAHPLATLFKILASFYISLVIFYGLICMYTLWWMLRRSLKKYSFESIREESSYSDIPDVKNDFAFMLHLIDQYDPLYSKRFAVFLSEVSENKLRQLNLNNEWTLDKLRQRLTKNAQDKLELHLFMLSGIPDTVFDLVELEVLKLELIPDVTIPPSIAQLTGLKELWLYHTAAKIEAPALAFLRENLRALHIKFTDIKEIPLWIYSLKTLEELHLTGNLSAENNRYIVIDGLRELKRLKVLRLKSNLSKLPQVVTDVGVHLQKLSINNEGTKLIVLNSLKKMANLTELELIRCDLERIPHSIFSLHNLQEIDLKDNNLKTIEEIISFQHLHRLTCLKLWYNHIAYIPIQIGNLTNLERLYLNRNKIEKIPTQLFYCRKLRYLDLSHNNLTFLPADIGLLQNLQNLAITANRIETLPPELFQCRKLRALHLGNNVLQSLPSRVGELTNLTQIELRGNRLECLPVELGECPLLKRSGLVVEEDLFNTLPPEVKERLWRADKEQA
Description: as §1
(§2) Electrophysiology Patch-clamp recordings of β-cells and mature adipocytes were performed as described previously (Zhang et al., Nat Cell Biol, 19, 504-517, 2017; Kang et al., Nature Communications, 9, 367, 2018). 3T3-F442A WT and KO preadipocytes were prepared as described in the Cell culture section above. […] Recordings were measured using Axopatch 200B amplifier paired to a Digidata 1550 digitizer using pClamp 10.4 software. […] The images were further analyzed for band intensities using ImageJ software. […]

SWELL1 protein = SWELL1 protein expression by Western blot in 3T3-F442A preadipocytes and adipocytes; type: cell-based; settings: 10 μM applied for 96 hours
Description: as §1, §2

VRAC/ICl,SWELL = target: T2, VRAC/ICl,SWELL (Homo sapiens, UniProt Q8IWT6); settings: read-out: IC50 as VRAC/ICl,SWELL inhibitor; cited from earlier work
T2 sequence (Q8IWT6 1-810): T1 sequence (Q8IWT6 1-810)

Question: What does the source list for CCCCC1(C2CCCC2)Cc2cc(OCCCC(=O)O)c(Cl)c(Cl)c2C1=O (stereo not shown) [Smod1, 4-[(2-Butyl-6,7-dichloro-2-cyclopentyl-2,3-dihydro-1-oxo-1H-inden-5-yl)oxy]butanoic acid]?
Answer: effects on insulin-AKT2-AS160 signaling in SWELL1 KO ([1]; SWELL1 KO 3T3-F442A adipocytes): absent; insulin-stimulated pAS160 ([1]; WT 3T3-F442A adipocytes, 10 μM for 96 h): enhanced; insulin-stimulated pAKT2 ([1]; WT 3T3-F442A preadipocytes/adipocytes, 10 μM for 96 h): enhanced; ICl,SWELL inward and outward current after hypotonic stimulation (ICl,SWELL): inhibition; increase of SWELL1 protein expression (SWELL1 protein; 3T3-F442A adipocytes): 1.5 fold; increase of SWELL1 protein expression (SWELL1 protein; 3T3-F442 preadipocytes): β; IC50 (VRAC/ICl,SWELL): 2 to 4 µM
